# Laboratory results: US20140200233A1, “USE OF MAD2L2 AS A STRATIFICATION MARKER IN THE TREATMENT OF BREAST TUMOURS WITH NOVEL PAN-CDK INHIBITORS” (BAYER INTELLECTUAL PROPERTY GMBH, priority 2011, published 2014)
# Columns and labels:
# Format in all cases: cell-based
# [1] = system: HeLa; experiment: Proliferation assay, Method 1 (crystal violet); settings: Homo sapiens, 96 h, HeLa cervix carcinoma cell line, 4 days
# Protocol: (§1) This assay was used for the following cell lines: MCF 10A, SK-BR-3, MCF7, HCT 116, HT-29, SW480, Caco-2, MIAPaCa-2, DU145, PC3, HeLa, Caki2, 786-0, A-375, NCI-H460, NCI-H69, NCI-H1975, A549.
# (§2) Cultivated human tumour cells (originally obtained from ATCC, HeLa-MaTu and HeLa-MaTu-ADR, originally obtained from Epo GmbH, Berlin) were plated in a density of from 1000 to 5000 cells/measurement point, depending on the growth rate of the cell line, in a 96-well multititre plate in 200 μl of growth medium (DMEM/HAMS F12, 2 mM L-glutamine, 10% foetal calf serum). After 24 hours, the cells of one plate (zero-point plate) were stained with crystal violet (see below), while the medium of the other plates was replaced by fresh culture medium (200 μl) with added test substances in various concentrations (0 μM, and in the range of 0.01-30 μM; the final concentration of the solvent dimethyl sulphoxide was 0.5%). The cells were incubated in the presence of the test substances for 4 days. Cell proliferation was determined by staining the cells with crystal violet: the cells were fixated by addition of 20 μl/measuring point of an 11% strength glutaraldehyde solution for 15 min at room temperature. After the fixated cells had been washed three times with water, the plates were dried at room temperature. The cells were stained by addition of 100 μl/measuring point of a 0.1% strength crystal violet solution (pH adjusted to pH 3 by addition of acetic acid). After the stained cells had been washed three times with water, the plates were dried at room temperature. The dye was dissolved by addition of 100 μl/measuring point of a 10% strength acetic acid solution. The absorption was determined photometrically at a wavelength of 595 nm. The change in percent of the cell growth was calculated by normalizing the measured values to the absorption values of the zero-point plate (=0%) and the absorption of the untreated (0 μM) cells (=100%). The measured data were normalized to 0% inhibition (cell proliferation without inhibitor) and 100% inhibition (zero-point plate). The IC50 values were determined using a 4-parameter fit with the aid of proprietary software.
# [2] = system: HCT 116; experiment: Proliferation assay, Method 1 (crystal violet); settings: Homo sapiens, 96 h, HCT 116 colon carcinoma cell line, 4 days
# Protocol: as §1, §2
# [3] = system: DU145; experiment: Proliferation assay, Method 1 (crystal violet); settings: Homo sapiens, DU-145, 96 h, DU145 prostate carcinoma cell line, 4 days
# Protocol: as §1, §2
# [4] = system: SW480; experiment: Proliferation assay, Method 1 (crystal violet); settings: Homo sapiens, 96 h, SW480 colon carcinoma cell line, 4 days
# Protocol: as §1, §2
# [5] = system: HT-29; experiment: Proliferation assay, Method 1 (crystal violet); settings: Homo sapiens, 96 h, HT-29 colon carcinoma cell line, 4 days
# Protocol: as §1, §2
# [6] = system: MCF7; experiment: Proliferation assay, Method 1 (crystal violet); settings: Homo sapiens, 96 h, MCF7 breast tumour cell line, 4 days
# Protocol: as §1, §2
# [7] = system: A-375; experiment: Proliferation assay, Method 1 (crystal violet); settings: Homo sapiens, 96 h, A-375 melanoma cell line, 4 days
# Protocol: as §1, §2
# [8] = system: 786-O; experiment: Proliferation assay, Method 1 (crystal violet); settings: Homo sapiens, 786-0, 96 h, 786-O renal carcinoma cell line, 4 days
# Protocol: as §1, §2
# [9] = system: MIAPaCa-2; experiment: Proliferation assay, Method 1 (crystal violet); settings: Homo sapiens, MIA PaCa-2, 96 h, MIAPaCa-2 pancreas carcinoma cell line, 4 days
# Protocol: as §1, §2
# [10] = system: PC3; experiment: Proliferation assay, Method 1 (crystal violet); settings: Homo sapiens, PC-3, 96 h, PC3 prostate carcinoma cell line, 4 days
# Protocol: as §1, §2
# [11] = system: SK-BR-3; experiment: Proliferation assay, Method 1 (crystal violet); settings: Homo sapiens, 96 h, SK-BR-3 breast tumour cell line, 4 days
# Protocol: as §1, §2
# [12] = system: Caki2; experiment: Proliferation assay, Method 1 (crystal violet); settings: Homo sapiens, CAKI-2, 96 h, Caki2 renal carcinoma cell line, 4 days
# Protocol: as §1, §2
# [13] = system: Caco-2; experiment: Proliferation assay, Method 1 (crystal violet); settings: Homo sapiens, 96 h, Caco-2 colon carcinoma cell line, 4 days
# Protocol: as §1, §2
# [14] = system: MDA-MB-435s; experiment: Proliferation assay, Method 2 (Vybrant MTT); settings: Homo sapiens, MDA-MB-435s breast tumour cell line
# [15] = system: NCI-H1838; experiment: Proliferation assay, Method 2 (Vybrant MTT); settings: Homo sapiens, NCI-H1838 (non-small-cell lung carcinoma)
# [16] = system: NCI-H1048; experiment: Proliferation assay, Method 2 (Vybrant MTT); settings: Homo sapiens, NCI-H1048 (small-cell lung carcinoma)
# [17] = system: NCI-H358; experiment: Proliferation assay, Method 2 (Vybrant MTT); settings: Homo sapiens, NCI-H358 (non-small-cell lung carcinoma)
# [18] = system: NCI-H661; experiment: Proliferation assay, Method 2 (Vybrant MTT); settings: Homo sapiens, NCI-H661 (non-small-cell lung carcinoma)
# [19] = system: NCI-H226; experiment: Proliferation assay, Method 2 (Vybrant MTT); settings: Homo sapiens, NCI-H226 (mesothelioma)
# [20] = system: NCI-H1581; experiment: Proliferation assay, Method 2 (Vybrant MTT); settings: Homo sapiens, NCI-H1581 (non-small-cell lung carcinoma)
# [21] = system: NCI-H1437; experiment: Proliferation assay, Method 2 (Vybrant MTT); settings: Homo sapiens, NCI-H1437 (non-small-cell lung carcinoma)
# [22] = system: ChaGo-K-1; experiment: Proliferation assay, Method 2 (Vybrant MTT); settings: Homo sapiens, ChaGo-K-1 (undifferentiated bronchial carcinoma)
# [23] = system: EVSA-T; experiment: Proliferation assay, Method 2 (Vybrant MTT); settings: Homo sapiens, EVSA-T breast tumour cell line
# [24] = system: NCI-H2228; experiment: Proliferation assay, Method 2 (Vybrant MTT); settings: Homo sapiens, NCI-H2228 (non-small-cell lung carcinoma)
# [25] = system: ZR-75-1; experiment: Proliferation assay, Method 2 (Vybrant MTT); settings: Homo sapiens, ZR-75-1 breast tumour cell line
# [26] = system: BT-20; experiment: Proliferation assay, Method 2 (Vybrant MTT); settings: Homo sapiens, BT-20 breast tumour cell line
# [27] = system: DU-4475; experiment: Proliferation assay, Method 2 (Vybrant MTT); settings: Homo sapiens, DU-4475 breast tumour cell line
# [28] = system: NCI-H2030; experiment: Proliferation assay, Method 2 (Vybrant MTT); settings: Homo sapiens, NCI-H2030 (non-small-cell lung carcinoma)
# [29] = system: SK-MES-1; experiment: Proliferation assay, Method 2 (Vybrant MTT); settings: Homo sapiens, SK-MES-1 (squamous-cell carcinoma)
# [30] = system: KPL-1; experiment: Proliferation assay, Method 2 (Vybrant MTT); settings: Homo sapiens, KPL-1 breast tumour cell line
# [31] = system: NCI-H810; experiment: Proliferation assay, Method 2 (Vybrant MTT); settings: Homo sapiens, NCI-H810 (non-small-cell lung carcinoma)
# [32] = system: NCI-H23; experiment: Proliferation assay, Method 2 (Vybrant MTT); settings: Homo sapiens, NCI-H23 (non-small-cell lung carcinoma)
# [33] = system: BT-549; experiment: Proliferation assay, Method 2 (Vybrant MTT); settings: Homo sapiens, BT-549 breast tumour cell line
# [34] = system: NCI-H522; experiment: Proliferation assay, Method 2 (Vybrant MTT); settings: Homo sapiens, NCI-H522 (non-small-cell lung carcinoma)
# [35] = system: T-47D; experiment: Proliferation assay, Method 2 (Vybrant MTT); settings: Homo sapiens, T47D, T-47D breast tumour cell line
# [36] = system: MDA-MB-231; experiment: Proliferation assay, Method 2 (Vybrant MTT); settings: Homo sapiens, MDA-MB-231 breast tumour cell line
# [37] = system: MDA-MB-468; experiment: Proliferation assay, Method 2 (Vybrant MTT); settings: Homo sapiens, MDA-MB-468 breast tumour cell line
# [38] = system: NCI-H1563; experiment: Proliferation assay, Method 2 (Vybrant MTT); settings: Homo sapiens, NCI-H1563 (non-small-cell lung carcinoma)
# [39] = system: NCI-H441; experiment: Proliferation assay, Method 2 (Vybrant MTT); settings: Homo sapiens, NCI-H441 (papillary lung carcinoma)
# [40] = system: NCI-H1703; experiment: Proliferation assay, Method 2 (Vybrant MTT); settings: Homo sapiens, NCI-H1703 (non-small-cell lung carcinoma)
# [41] = system: MDA-MB-453; experiment: Proliferation assay, Method 2 (Vybrant MTT); settings: Homo sapiens, MDA-MB-453 breast tumour cell line
# [42] = system: NCI-H1793; experiment: Proliferation assay, Method 2 (Vybrant MTT); settings: Homo sapiens, NCI-H1793 (non-small-cell lung carcinoma)
# [43] = system: NCI-H2170; experiment: Proliferation assay, Method 2 (Vybrant MTT); settings: Homo sapiens
# [44] = system: BT-474; experiment: Proliferation assay, Method 2 (Vybrant MTT); settings: Homo sapiens, BT-474 breast tumour cell line
# [45] = system: Hs 578T; experiment: Proliferation assay, Method 2 (Vybrant MTT); settings: Homo sapiens, Hs 578T breast tumour cell line
# [46] = system: NCI-H2347; experiment: Proliferation assay, Method 2 (Vybrant MTT); settings: Homo sapiens, NCI-H2347 (non-small-cell lung carcinoma)
# [47] = system: MCF 10A; experiment: Proliferation assay (listed under Method 1 and Method 2); settings: Homo sapiens; MCF 10A breast cell line; method 1 or 2
# Protocol: as §1, §2
# [48] = system: A549; experiment: as above; settings: Homo sapiens; A549 (non-small-cell lung carcinoma); method 1 or 2
# Protocol: as §1, §2
# [49] = system: NCI-H69; experiment: as above; settings: Homo sapiens; NCI-H69 (small-cell lung carcinoma); method 1 or 2
# Protocol: as §1, §2
# [50] = system: NCI-H1975; experiment: as above; settings: Homo sapiens; NCI-H1975 (non-small-cell lung carcinoma); method 1 or 2
# Protocol: as §1, §2
# [51] = system: NCI-H460; experiment: as above; settings: Homo sapiens; NCI-H460 (non-small-cell lung carcinoma); method 1 or 2
# Protocol: as §1, §2
structure (smiles),measurement,setting,value
"C[C@@H](O)[C@@H](C)Oc1nc(Nc2ccc([S@](=N)(=O)C3CC3)cc2)ncc1C(F)(F)F [Compound A, (2R,3R)-3-{[2-{[4-(R-cyclopropylsulphonimidoyl)phenyl]amino}-5-(trifluoromethyl)pyrimidin-4-yl]oxy}butan-2-ol]",IC50,[1],12 nM
same,IC50,[2],18 nM
same,IC50,[3],8 nM
same,IC50,[4],15 nM
same,IC50,[5],29 nM
same,IC50,[6],15 nM
same,IC50,[7],14 nM
same,IC50,[8],20 nM
same,IC50,[9],21 nM
same,IC50,[10],25 nM
same,IC50,[11],13 nM
same,IC50,[12],26 nM
same,IC50,[13],16 nM
same,IC50,[14],36.4 nM
same,IC50,[15],15.9 nM
same,IC50,[16],25 nM
same,IC50,[17],19.4 nM
same,IC50,[18],53.1 nM
same,IC50,[19],54.6 nM
same,IC50,[20],53.8 nM
same,IC50,[21],69.9 nM
same,IC50,[22],69.4 nM
same,IC50,[23],45 nM
same,IC50,[24],52.1 nM
same,IC50,[25],32.5 nM
same,IC50,[26],38.1 nM
same,IC50,[27],37.3 nM
same,IC50,[28],17.7 nM
same,IC50,[29],26.5 nM
same,IC50,[30],6.44 nM
same,IC50,[31],9.01 nM
same,IC50,[32],45.4 nM
same,IC50,[33],84.1 nM
same,IC50,[34],65.4 nM
same,IC50,[35],33.8 nM
same,IC50,[36],20.2 nM
same,IC50,[37],28.8 nM
same,IC50,[38],59.1 nM
same,IC50,[39],10 nM
same,IC50,[40],53.6 nM
same,IC50,[41],15.1 nM
same,IC50,[42],22.5 nM
same,IC50,[43],48.7 nM
same,IC50,[44],42.6 nM
same,IC50,[45],16.8 nM
same,IC50,[46],28 nM
same,IC50,[47],20 nM
same,IC50,[48],31 nM
same,IC50,[49],27 nM
same,IC50,[50],24 nM
same,IC50,[51],27 nM
